Earlier results on one substance are cited in patent US7592331B2, “Macrocyclic factor VIIa inhibitors useful as anticoagulants” (Bristol-Myers Squibb Company, priority 2005, dated 2009).

Series [1] relates to patients undergoing total knee replacement.
In series [2] the test system is patients undergoing coronary angioplasty.
For series [3], the system named is patients with acute coronary syndromes.

For the substance “recombinant nematode anticoagulant protein c2 [rNAPc2]”, in series [1], the deep vein thrombosis entry was “prevents deep vein thrombosis”. Further, the systemic thrombin generation result in series [2] is on record as “reduces systemic thrombin generation”. In series [3], the “magnitude and duration of ischemic events” value was “reduces magnitude and duration of ischemic events”.
